According to ChEMBL document CHEMBL6182867, “Discovery of ultra short β-peptoids with selective activity against drug-resistant Mycobacterium tuberculosis” (Eur J Med Chem, 2025):

Assays:
Format in all cases: functional
[1] = tested on: Mycobacterium tuberculosis; experiment: Antitubercular activity against rifampin-resistant Mycobacterium tuberculosis H37Rv by microplate alamar blue assay
[2] = tested on: Mycobacterium tuberculosis; experiment: Antitubercular activity against isoniazid-resistant Mycobacterium tuberculosis H37Rv by microplate alamar blue assay
[3] = tested on: Mycobacterium tuberculosis; experiment: Synergistic antitubercular activity against Mycobacterium tuberculosis isoniazid-resistant mutant assessed as isoniazid MIC=>90 at 0.4 ug/ml by microplate alamar blue assay (Rvb >8 uM); conditions: dose 0.4 µg/ml
[4] = tested on: Mycobacterium tuberculosis; experiment: Synergistic antitubercular activity against Mycobacterium tuberculosis rifampin-resistant mutant assessed as rifampin MIC=>90 at 0.4 ug/ml by microplate alamar blue assay (Rvb >1 uM); conditions: dose 0.4 µg/ml
[5] = tested on: Mycobacterium tuberculosis; experiment: Synergistic antitubercular activity against Mycobacterium tuberculosis isoniazid-resistant mutant assessed as isoniazid growth inhibition at 0.4 ug/ml by microplate alamar blue assay (reference value: 0%); conditions: dose 0.4 µg/ml
[6] = tested on: Mycobacterium tuberculosis; experiment: Synergistic antitubercular activity against Mycobacterium tuberculosis bedaquiline-resistant mutant 7 assessed as bedaquiline MIC=>90 at 0.4 ug/ml by microplate alamar blue assay (reference value: 0.9 uM); conditions: dose 0.4 µg/ml
[7] = tested on: Mycobacterium tuberculosis; experiment: Synergistic antitubercular activity against Mycobacterium tuberculosis rifampin-resistant mutant assessed as rifampin growth inhibition at 0.4 ug/ml by microplate alamar blue assay (reference value: 46%); conditions: dose 0.4 µg/ml
[8] = tested on: Mycobacterium tuberculosis; experiment: Synergistic antitubercular activity against Mycobacterium tuberculosis bedaquiline-resistant mutant H15 assessed as bedaquiline MIC=>90 at 0.4 ug/ml by microplate alamar blue assay (Rvb >2 uM); conditions: dose 0.4 µg/ml
[9] = tested on: Mycobacterium tuberculosis; experiment: Antitubercular activity against Mycobacterium tuberculosis H37Rv harboring LuxABCDE assessed as reduction in luminescence supplemented with fresh medium containing compound on day 2 and 5 by luminescence assay; conditions: 120 h, time 5 day
[10] = tested on: Mycobacterium tuberculosis; experiment: Synergistic antitubercular activity against Mycobacterium tuberculosis bedaquiline-resistant mutant H15 assessed as bedaquiline growth inhibition at 0.4 ug/ml by microplate alamar blue assay (reference value: 75%); conditions: dose 0.4 µg/ml
[11] = tested on: Mycobacterium tuberculosis; experiment: Synergistic antitubercular activity against Mycobacterium tuberculosis isoniazid-resistant mutant assessed as isoniazid growth inhibition at 0.8 ug/ml by microplate alamar blue assay (reference value: 0%); conditions: dose 0.8 µg/ml
[12] = tested on: Mycobacterium tuberculosis; experiment: Synergistic antitubercular activity against Mycobacterium tuberculosis rifampin-resistant mutant assessed as rifampin growth inhibition at 0.8 ug/ml by microplate alamar blue assay (reference value: 46%); conditions: dose 0.8 µg/ml
[13] = tested on: Mycobacterium tuberculosis; experiment: Synergistic antitubercular activity against Mycobacterium tuberculosis bedaquiline-resistant mutant H15 assessed as bedaquiline growth inhibition at 0.8 ug/ml by microplate alamar blue assay (reference value: 75%); conditions: dose 0.8 µg/ml
[14] = tested on: Mycobacterium tuberculosis; experiment: Synergistic antitubercular activity against Mycobacterium tuberculosis bedaquiline-resistant mutant H15 assessed as bedaquiline MIC=>90 at 0.8 ug/ml by microplate alamar blue assay (Rvb >2 uM); conditions: dose 0.8 µg/ml
[15] = tested on: Mycobacterium tuberculosis; experiment: Synergistic antitubercular activity against Mycobacterium tuberculosis isoniazid-resistant mutant assessed as isoniazid MIC=>90 at 0.8 ug/ml by microplate alamar blue assay (Rvb >8 uM); conditions: dose 0.8 µg/ml
[16] = tested on: Mycobacterium tuberculosis; experiment: Synergistic antitubercular activity against Mycobacterium tuberculosis rifampin-resistant mutant assessed as rifampin MIC=>90 at 0.8 ug/ml by microplate alamar blue assay (Rvb >1 uM); conditions: dose 0.8 µg/ml
[17] = tested on: Mycobacterium tuberculosis; experiment: Synergistic antitubercular activity against Mycobacterium tuberculosis bedaquiline-resistant mutant 7 assessed as bedaquiline MIC=>90 at 0.8 ug/ml by microplate alamar blue assay (Rvb >2 uM); conditions: dose 0.8 µg/ml

CC(=O)NC[C@H]1CN(c2ccc(N3CCOCC3)c(F)c2)C(=O)O1 [LINEZOLID]
MIC90 [1]: 1.14 µM
MIC90 [2]: 0.94 µM

CO[C@H]1/C=C/O[C@@]2(C)Oc3c(C)c(O)c4c(O)c(c(/C=N/N5CCN(C)CC5)c(O)c4c3C2=O)NC(=O)/C(C)=C\C=C\[C@H](C)[C@H](O)[C@@H](C)[C@@H](O)[C@@H](C)[C@H](OC(C)=O)[C@@H]1C [RIFAMPIN]
MIC90 [1]: > 1 µM
MIC90 [2]: 0.03 µM

NNC(=O)c1ccncc1 [ISONIAZID]
MIC90 [1]: 0.32 µM
MIC90 [2]: > 8 µM

CC(C)N(C(=O)CCNCCCC1CCCC1)C(C)C
MIC [3]: >8 µM
MIC [4]: >1 µM
MIC90 [1]: 1.78 µg/mL
growth inhibition (GI) [5]: 0%
MIC [6]: 0.91 µM
growth inhibition (GI) [7]: 47%
MIC90 [2]: 1.87 µg/mL
MIC [8]: >2 µM
EC90 [9]: 9.67 µg/mL
growth inhibition (GI) [10]: 72%

COc1nc2ccc(Br)cc2cc1[C@@H](c1ccccc1)[C@@](O)(CCN(C)C)c1cccc2ccccc12 [BEDAQUILINE]
EC90 [9]: 360 nM

CC(C)N(C(=O)CCNCCC(c1ccccc1)c1ccccc1)C(C)C
MIC90 [1]: 3.32 µg/mL
growth inhibition (GI) [11]: 17%
growth inhibition (GI) [12]: 60%
growth inhibition (GI) [13]: 76%
MIC90 [2]: 3.01 µg/mL
MIC [14]: >2 µM
MIC [15]: >8 µM
EC90 [9]: 9.93 µg/mL
MIC [16]: >1 µM
MIC [17]: 0.53 µM
